Source: patent US20130287854A1, “COMPOSITIONS AND USES” (VECTURA LIMITED, priority 2010, published 2013)

Experiments:
[1] = cited from earlier work
[2] = tested on: Parkinson's disease patients; conditions: subcutaneous injection, marketing literature; cited from earlier work
[3] = tested on: Parkinson's disease patients; assay: Therapeutic effect of apomorphine by pulmonary inhalation in a clinical trial; assay type: in vivo, human
patients with PD [4] = conditions: subcutaneous, 11/16 patients; cited from earlier work
[5] = tested on: male erectile dysfunction patients; assay: VR004/008 Phase IIb study, male erectile dysfunction; assay type: in vivo, human; conditions: a couple of patients receiving 310 μg and 430 μg doses
Protocol: In contrast, in a recent clinical study relating to male erectile dysfunction (VR004/008 Phase IIb study), the majority of patients reported that the duration of action lasted between 2 to 10 minutes, although a couple of patients receiving 310 μg and 430 μg doses did report that the duration of action lasted over 30 minutes.=

patients with PD [6] = conditions: subcutaneous, cited from earlier work
[7] = human, in vivo

Tmax, fastest observed [7]: 1 min
Compound: CN1CCc2cccc3c2[C@H]1Cc1ccc(O)c(O)c1-3 [apomorphine]
dose linearity of pharmacokinetics ([1]; dose range of 2 to 8 mg, single subcutaneous injection into the abdominal wall, idiopathic Parkinson's disease): linear pharmacokinetics | Tmax ([1]; nasal administration): approximately 15 minutes | patients with improved movement within 20 minutes post dose [2]: 90% | onset of the therapeutic effect (conversion) ([3]; majority of patients, after inhaling): ≤ 10 min | mean duration of the therapeutic effect ([3]; pulmonary inhalation, in a clinical trial): 75 min | conversion from the off to the on state, quickest reported ([3]; some patients, pulmonary inhalation): 2 min | patients reporting incidences of dyskinesia (patients with PD [4]): 69% | duration of action [5]: over 30 minutes | patients reporting an increased dyskinesia severity compared to baseline (patients with PD [6]; 15 of 20 patients): 75% | patients reporting signs of dyskinesia (patients with PD [6]; active group, FIG. 14): 35% | mean daily duration of on state with non-troublesome dyskinesia and troublesome dyskinesias (patients with PD [6]; active group): 0.24 h | change in the mean daily period asleep from the baseline (patients with PD [6]; active treatment group): 0.10 h | mean time to reach therapeutic effect (patients with PD [6]; active treatment group): 22.2 min
